From patent publication US20230416196A1, “DIMER OF BIGUANIDINES AND THEIR THERAPEUTIC USES” (INSTITUT CURIE, priority 2020, published 2023) come the findings set out here.

Experiment [1] relates to mice challenged by cecal ligation and puncture. As to the kind of experiment: Murine model of sepsis using cecal ligation and puncture (CLP). The class given is in vivo, BALB/c mice. Here is the method:
Murine model of sepsis using cecal ligation and puncture. All animal-related research is conducted in accordance with 2010/63/EU and National legislation regulating the use of laboratory animals in scientific research and for other purposes (Official Gazette 55/13). An Institutional Committee on Animal Research Ethics (CEEA-047) oversees that animal-related procedures are not compromising the animal welfare. 9 weeks-old male BALB/c mice were used for these experiments. Animals were anesthetized by isoflurane (Forene). After abdominal incision, the cecum was ligated, punctured with a gauge needle (25G or 21G), and a small amount of fecal matter was released. After the cecum was returned to the abdomen, the abdominal cavity was closed in two layers and the mice were resuscitated with 30 mL/kg body weight of saline (0.9% NaCl) administered subcutaneously. For the sham group, after abdominal incision, the cecum was manipulated but was neither ligated nor punctured. After the cecum was returned to the abdomen, the abdominal cavity was closed in two layers and the mice were resuscitated with 30 mL/kg body weight of saline administered subcutaneously. LCC-12 (0.3 mg/kg, IP) was administered at 0.3 mg/kg dose 4 h, 24 h, 48 h, 72 h and 96 h following CLP creation. Mortality incidence was monitored every 2 h up to 120 h (except from 10 pm to 6 am) post CLP creation. Dexamethasone was administered intraperitoneally at 1 mg/kg dose 5-minutes prior CLP creation.

The next experiment deals with monocytes. Description: Activation of monocytes (CD25, CD80 flow cytometry). The note with it: LCC-12 10 μM, 24 h, LPS; FIG. 6D. The class given is cell-based, human. Here is the method:
Monocytes. Peripheral blood samples were collected from healthy donors (Etablissement Français du Sang). Pan monocytes were isolated by negative magnetic sorting using microbeads according to the manufacturer's instructions (Miltenyi Biotec, 130-096-537), and cultured in RPMI 1640 supplemented with glutamine, 10% fetal bovine serum. Monocytes were treated with lipopolysaccharides (LPS, 100 ng/mL, 24 h) to generate activated monocytes and were co-treated with LCC-12 (in-house, 10 μM, 24 h). The activation status of the monocytes was assessed by measuring CD25 and CD80 surface markers by flow cytometry.
In general terms: A flow cytometer gives signals particle by particle.

With `N=C(N)NC(=N)NCCCCCCCCCCCCNC(=N)NC(=N)N` [LCC-12, lipophilic copper clamp C12], the “survival in CLP sepsis” value in experiment [1] (21G needle, LCC-12 0.3 mg/kg IP, FIG. 5A) is “delayed death and increased survival rate”. Also, the “body weight loss in CLP-induced sublethal sepsis” value in experiment [1] (25G needle, LCC-12 0.3 mg/kg IP, FIG. 5C) is “reduced body weight loss”. Besides, the “overall gravity score of symptoms in CLP-induced sublethal sepsis” value in experiment [1] (25G needle, LCC-12 0.3 mg/kg IP, FIG. 5D) is on record as “improved the overall gravity score of symptoms”. Also, the “symptoms of sepsis compared to dexamethasone” value in experiment [1] (CLP, throughout the treatments) is listed as “considerably attenuated the symptoms of sepsis compared to dexamethasone”. Besides, the activation of monocytes entry in the experiment with monocytes is on record as “decreases the activation”.
